Source: patent publication US12428415B2, “Matriptase 2 inhibitors and uses thereof” (Disc Medicine, Inc., priority 2018, dated 2025)
Like-named read-outs stand apart in the source and are kept apart here.

Target: T1, Human Recombinant Matriptase 2 (Homo sapiens, UniProt Q8IU80)
T1 construct: purchased Enzo Life Sciences (an in-house preparation was also used) ALX-201-752-1
T1 sequence (Q8IU80 1-811): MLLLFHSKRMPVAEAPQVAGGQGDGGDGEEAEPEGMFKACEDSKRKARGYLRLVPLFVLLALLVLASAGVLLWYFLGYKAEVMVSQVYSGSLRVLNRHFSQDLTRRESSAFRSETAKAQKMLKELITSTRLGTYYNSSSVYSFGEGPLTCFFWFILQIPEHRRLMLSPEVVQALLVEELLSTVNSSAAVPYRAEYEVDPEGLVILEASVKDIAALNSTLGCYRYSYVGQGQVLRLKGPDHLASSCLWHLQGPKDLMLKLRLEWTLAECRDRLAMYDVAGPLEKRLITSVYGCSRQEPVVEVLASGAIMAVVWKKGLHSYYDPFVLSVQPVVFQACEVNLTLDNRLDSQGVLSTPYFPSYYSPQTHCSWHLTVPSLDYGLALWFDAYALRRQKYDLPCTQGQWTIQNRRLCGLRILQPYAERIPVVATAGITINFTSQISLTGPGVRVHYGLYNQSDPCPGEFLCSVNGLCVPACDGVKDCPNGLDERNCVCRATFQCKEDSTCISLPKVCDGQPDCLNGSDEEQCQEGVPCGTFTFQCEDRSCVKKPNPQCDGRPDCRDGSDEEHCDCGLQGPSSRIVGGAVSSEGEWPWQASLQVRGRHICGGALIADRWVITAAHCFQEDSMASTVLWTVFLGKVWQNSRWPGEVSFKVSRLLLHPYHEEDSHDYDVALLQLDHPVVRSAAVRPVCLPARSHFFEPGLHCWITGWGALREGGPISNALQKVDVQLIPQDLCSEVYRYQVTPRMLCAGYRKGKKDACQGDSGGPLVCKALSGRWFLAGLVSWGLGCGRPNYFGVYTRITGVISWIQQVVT
Assay: Matriptase 2 fluorescence based inhibition assay, Method A (100 mM TRIS pH 9, 1 mg/mL BSA)
Format: biochemical
Conditions: read-out: Mar-2 % inhibition at 1 uM
Method in brief: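 Enzyme (7 nM commercial or 15 nM in-house) preincubated 30 min with compound in 100 mM TRIS pH 9, 1 mg/mL BSA, 1% DMSO at 25° C. Boc-Gln-Ala-Arg-AMC substrate at 100 μM; fluorescence (Ex 360/Em 480 nm) read 60 min later. Screened at 1 and 10 μM; IC50 from variable-slope sigmoidal fit.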

| SMILES | inhibition at 1 µM (at 1 uM, Assay Used = A) | inhibition at 1 µM (1 uM, Assay Used A) | also measured |
| --- | --- | --- | --- |
| CC1CCC(NC(=O)c2cc3ccc(C(=N)N)cc3n2Cc2ccc(C(=O)N(C)C)cc2)CC1 (stereo not shown) [Compound I-218, 6-Carbamimidoyl-1-(4-(dimethylcarbamoyl)benzyl)-N-(4-methylcyclohexyl)-1H-indole-2-carboxamide] | 0 to 25% | – | – |
| N=C(N)c1ccc2cc(C(=O)N3CCC(C(=O)NCCCN)CC3)n(CCc3ccccc3)c2c1 [Compound I-358] | 25 to 50% | – | – |
| N=C(N)c1ccc2c(N)c(C(=O)N3CCC(CCN)CC3)n(CCS(=O)(=O)c3ccccc3)c2c1 [Compound I-349, 3-Amino-2-(4-(2-aminoethyl)piperidine-1-carbonyl)-1-(2-(phenylsulfonyl)ethyl)-1H-indole-6-carboximidamide] | 25 to 50% | – | – |
| N=C(N)c1ccc2cc(C(=O)Nc3cccc(N4CC[C@H](F)C4)c3)n(Cc3ccc(C(N)=O)cc3)c2c1 [Compound I-122] | – | 0 to 25% | – |
| CC1CCC(NC(=O)c2c(Cl)c3ccc(C(=N)N)cc3n2Cc2ccc(-c3ccccc3)cc2)CC1 (stereo not shown) [Compound I-237] | 0 to 25% | – | – |
| N=C(N)c1ccc2cc(C(=O)N3CCC(CCN)CC3)n(CCCN)c2c1 [Compound I-274] | 25 to 50% | – | – |
| N=C(N)c1ccc2cc(C(=O)N3CCC(CCN)CC3)n(Cc3ccc(Oc4ccc(F)cc4)cc3)c2c1 [Compound I-316] | 0 to 25% | – | – |
| N=C(N)c1ccc2cc(C(=O)N[C@H]3CC[C@H](N)CC3)n(Cc3cccc(Oc4ccccc4)c3)c2c1 [Compound I-240] | 50 to 75% | – | – |
| N=C(N)c1ccc2cc(C(=O)N3CC[C@H](F)C3)n(Cc3ccc(NC(=O)CCN)cc3)c2c1 [Compound I-375] | 0 to 25% | – | – |
| N=C(N)c1ccc2cc(C(=O)Nc3ccc4ncsc4c3)n(Cc3ccc(C(N)=O)cc3)c2c1 [Compound I-88] | – | 0 to 25% | – |
| N=C(N)c1ccc2cc(C(=O)NCC3CCCCC3)n(Cc3ccc(C(N)=O)cc3F)c2c1 [Compound I-227, 6-Carbamimidoyl-1-(2-Fluoro-4-carbamoyl-benzyl)-N-(cyclohexylmethyl)-1H-indole-2-carboxamide] | 0 to 25% | – | – |
| N/C(=N\O)c1ccc2cc(C(=O)NCC3CCNCC3)n(Cc3ccc4ccccc4c3)c2c1 [Compound I-398, 6-(N′-hydroxycarbamimidoyl)-1-(naphthalen-2-ylmethyl)-N-(piperidin-4-ylmethyl)-1H-indole-2-carboxamide] | – | – | inhibition at 1 µM (1 uM compound, Assay Used = A): 0 to 25% |
| N=C(N)c1ccc2cc(C(=O)N3CCC(CCN)CC3)n(Cc3ccc(Oc4cccc(C(F)(F)F)c4)cc3)c2c1 [Compound I-319] | 25 to 50% | – | – |
| N=C(N)c1ccc2c(N)c(C(=O)N3CCC(CCN)CC3)n(Cc3ccc(Oc4ccccc4)cc3)c2c1 [Compound I-348] | 0 to 25% | – | – |
| CCOC(=O)Nc1c(C(=O)NC2CCC(N)CC2)n(CCS(=O)(=O)c2ccccc2)c2cc(/C(N)=N/O)ccc12 (stereo not shown) [Compound I-57, Ethyl (2-(((1r,4r)-4-aminocyclohexyl)carbamoyl)-6-((Z)—N′-hydroxycarbamimidoyl)-1-(2-(phenylsulfonyl)ethyl)-1H-indol-3-yl)carbamate] | – | 0 to 25% | – |
| N=C(N)c1ccc2cc(C(=O)Nc3ccc(Oc4ccccc4)cc3)n(Cc3ccc(C(N)=O)cc3)c2c1 [Compound I-65] | – | 0 to 25% | – |
| N=C(N)c1ccc2cc(C(=O)N[C@H]3CC[C@H](N)CC3)n(CCc3ccccc3)c2c1 [Compound I-27] | – | 50 to 75% | – |
| CC(C)c1cccc(NC(=O)c2cc3ccc(C(=N)N)cc3n2Cc2ccc(C(N)=O)cc2)c1 [Compound I-79] | – | 0 to 25% | – |
| N=C(NC(=O)OCc1ccccc1)c1ccc2cc(C(=O)Nc3cccc(N4CCCC4)c3)n(Cc3ccc(C(N)=O)cc3)c2c1 [Compound I-143] | – | 0 to 25% | – |
| Cc1ccc(NC(=O)c2cc3ccc(C(=N)N)cc3n2Cc2ccc(C(N)=O)cc2)cc1O [Compound I-71] | – | 0 to 25% | – |
| N=C(N)c1ccc2cc(C(=O)NCCC3CCCCC3)n(Cc3ccc(C(N)=O)cc3)c2c1 [Compound I-195] | – | 0 to 25% | – |
| N=C(N)c1ccc2cc(C(=O)N3CC[C@H](F)C3)n(Cc3ccc(C(F)(F)F)cc3)c2c1 [Compound I-279] | 0 to 25% | – | – |
